Laboratory results reported in BigSolDB 2.1.

N#CN=C(N)N
solubility (mole fraction)
Conditions | 283.15 K | 288.15 K | 293.15 K | 298.15 K | 303.15 K | 308.15 K | 313.15 K | 318.15 K | 323.15 K
in acetone | 0.00634 | 0.00658 | 0.00677 | 0.00754 | 0.00836 | 0.0102 | 0.0112 | 0.0133 | 0.0154
in acetonitrile | 0.00219 | 0.00226 | 0.00245 | 0.00273 | 0.00296 | 0.00324 | 0.00364 | 0.00447 | 0.00528
in ethanol | 0.00786 | 0.00861 | 0.00936 | 0.0102 | 0.0109 | 0.0125 | 0.0142 | 0.017 | 0.0206
